36 molecules from ChEMBL document CHEMBL1857833, “Screening and optimization of specific chemical series against human African Trypanosomiasis (HAT)” can be followed below.

≈ marks a conversion by molar mass, not a printed value. Where only a bound is given, the exact number is not on record here.

The subject of data set [1] is Trypanosoma brucei. The data set is described as follows: DNDI: Inhibition of Human African Trypanosomiasis, SBRI 427, in vitro. It is filed as functional, organism-based. The note with it: Trypanosoma brucei, SBRI 427; read-out: IC50.
Data set [2] in a line: DNDI: Cytotoxicity against L929 mouse fibroblasts, CYTO-SP, 24 hour. It counts as toxicity, cell-based. The following applies: mouse, L929 mouse fibroblasts.

`C[C@@H]1[C@H]2C[C@@H](C[C@H]1N/C(=N\O)c1ccccc1-c1ccccc1)C2(C)C`: the 50% inhibitory concentration (IC50) (as a rule, the concentration that inhibits the measured activity by half) in data set [1] came to 5 µg/mL (≈ 14.3 µM). Also, half-maximal inhibition in data set [2] (IC50 at 24 h) was put at 17 µg/mL (≈ 48.8 µM).
For `O/N=C(/c1ccccc1-c1ccccc1)n1ccnc1`, in that order: above 5 µg/mL and above 50 µg/mL.
For `CCOc1ccccc1CN/C(=N\O)c1cccnc1Oc1ccc(C(C)C)cc1`, in that order: 1.12 µg/mL (≈ 2.76 µM) and 38.6 µg/mL (≈ 95.1 µM).
The corresponding values for `Cc1cc(C)cc(Oc2ccc(/C(=N/O)NC3CCC3)cn2)c1` are 0.59 µg/mL (≈ 1.89 µM) and above 50 µg/mL.
`C[C@@H]1[C@@H](N/C(=N\O)c2ccccc2-c2ccccc2)C[C@H]2C[C@@H]1C2(C)C`: the half-inhibitory concentration (IC50) in data set [1] is above 5 µg/mL. In data set [2], this molecule yielded an IC50 at 24 h of 17 µg/mL (≈ 48.8 µM).
For `Cc1cc(C)cc(Oc2ccc(/C(=N/O)NC3CCCC3)cn2)c1`, in that order: 0.59 µg/mL (≈ 1.81 µM) and below 50 µg/mL.
For `CCc1ccc(Oc2ncccc2/C(=N/O)NCc2ccccc2C)cc1`, the half-inhibitory concentration (IC50) in data set [1] was determined as 1.07 µg/mL (≈ 2.96 µM). In data set [2], this molecule displayed a 50% inhibitory concentration (IC50) at 24 h above 50 µg/mL.
The corresponding values for `Cc1ccccc1CN/C(=N\O)c1cccnc1Oc1ccc(C(C)C)cc1` are 1.06 µg/mL (≈ 2.82 µM) and 44.9 µg/mL (≈ 120 µM).
The corresponding values for `Cc1ccc(Oc2ncccc2/C(=N/O)NC2CCC(C)CC2)c2c1CCC2` (configuration not stated) are 0.81 µg/mL (≈ 2.13 µM) and 32.5 µg/mL (≈ 85.5 µM).
For `COc1ccccc1Oc1ncccc1C(=N)NC1CCCCC1`, in that order: above 5 µg/mL and above 50 µg/mL.
Regarding `O/N=C(\NCC1CCCCC1)c1cccnc1Oc1ccc(Cl)cc1`, in data set [1], the 50% inhibitory concentration (IC50) came to 0.92 µg/mL (≈ 2.56 µM). Moreover, the IC50 at 24 h in data set [2] was above 50 µg/mL.
For `CC(C)c1ccc(Oc2ncccc2/C(=N/O)NCc2cccs2)cc1`, in that order: 0.89 µg/mL (≈ 2.42 µM) and above 50 µg/mL.
The corresponding values for `CN(/C(=N\O)c1cccnc1OCc1cccc(F)c1)c1ccccc1` are 1.09 µg/mL (≈ 3.1 µM) and above 50 µg/mL.
For `Cc1ccc(Oc2ncccc2/C(=N/O)NCc2cccs2)c2c1CCC2`, in that order: 1.09 µg/mL (≈ 2.87 µM) and above 50 µg/mL.
`O/N=C(\NC1CCCCC1)c1ccnc(Oc2cccc3c2CCCC3)c1`: the IC50 in data set [1] amounted to 0.83 µg/mL (≈ 2.27 µM). In data set [2], the half-inhibitory concentration (IC50) at 24 h was 48.4 µg/mL (≈ 132 µM).
The corresponding values for `O/N=C(\NC1CCC1)c1cccnc1OCC1CCCCC1` are 0.64 µg/mL (≈ 2.11 µM) and above 50 µg/mL.
The corresponding values for `CCOc1ccccc1CN/C(=N\O)c1cccnc1Oc1ccc(CC)cc1` are 0.76 µg/mL (≈ 1.94 µM) and above 50 µg/mL.
For `CC(C)(C)CN/C(=N\O)c1cccnc1Oc1ccc(Cl)cc1`, in that order: 0.58 µg/mL (≈ 1.74 µM) and above 50 µg/mL.
For the molecule `O/N=C(/NC1CCCCC1)c1ccc2ccccc2c1`, the IC50 in data set [1] was above 5 µg/mL. The molecule further returned an IC50 at 24 h in data set [2] of 21.1 µg/mL (≈ 78.7 µM).
With `O/N=C(\NC1CCCCC1)c1cccc(-c2ccccc2)c1`, in data set [1], the 50% inhibitory concentration (IC50) was found to be 2.6 µg/mL (≈ 8.83 µM). Moreover, 35 µg/mL (≈ 119 µM) corresponded to half-maximal inhibition in data set [2] (IC50 at 24 h).
For `COc1ccc(Oc2ncccc2/C(=N/O)NCC(C)(C)C)cc1`, in that order: 0.18 µg/mL (≈ 0.546 µM) and above 50 µg/mL.
For `Cc1ccc(Oc2ncccc2/C(=N/O)NCC2CC2)c2c1CCC2`, in that order: 0.21 µg/mL (≈ 0.622 µM) and above 50 µg/mL.
The corresponding values for `CCC(CC)N/C(=N\O)c1cccnc1OCC1CCCCC1` are 0.44 µg/mL (≈ 1.38 µM) and 33.5 µg/mL (≈ 105 µM).
Regarding `CCC(CC)N/C(=N\O)c1cccnc1Oc1ccc(OC)cc1`, the IC50 in data set [1] amounted to 0.78 µg/mL (≈ 2.37 µM). Further, the concentration for half-maximal inhibition (IC50) at 24 h in data set [2] was above 50 µg/mL.
For `CCc1ccc(Oc2ncccc2/C(=N/O)NCc2ccccc2)cc1`, in that order: 1.08 µg/mL (≈ 3.11 µM) and above 50 µg/mL.
For `CCC(C)(C)N/C(=N\O)c1cccnc1Oc1ccc2ccccc2c1`, in that order: 0.49 µg/mL (≈ 1.4 µM) and above 50 µg/mL.
For the molecule `COc1ccc(Oc2ncccc2/C(=N/O)NC2CCCC2)cc1`, the concentration for half-maximal inhibition (IC50) in data set [1] stood at 0.15 µg/mL (≈ 0.458 µM). In data set [2], this molecule returned a half-maximal inhibitory concentration (IC50) at 24 h above 50 µg/mL.
Take `Cc1cc(C)cc(Oc2ccc(/C(=N/O)NC3CCCCC3)cn2)c1`: the half-inhibitory concentration (IC50) in data set [1] worked out at 1.08 µg/mL (≈ 3.18 µM). Further, the IC50 at 24 h in data set [2] was above 50 µg/mL.
The corresponding values for `O/N=C(\NCC1CC1)c1cccnc1Oc1ccc2ccccc2c1` are 0.62 µg/mL (≈ 1.86 µM) and above 50 µg/mL.
The corresponding values for `O/N=C(/c1cccnc1Oc1ccc2ccccc2c1)N1CCC2CCCCC2C1` (configuration not stated) are 0.13 µg/mL (≈ 0.324 µM) and above 50 µg/mL.
The corresponding values for `Cc1cc(C)cc(Oc2ccc(/C(=N/O)NCC(C)(C)C)cn2)c1` are 0.77 µg/mL (≈ 2.35 µM) and above 50 µg/mL.
As for `COc1ccccc1Oc1ncccc1C(=N)N`, the concentration for half-maximal inhibition (IC50) in data set [1] was above 5 µg/mL. The IC50 at 24 h in data set [2] was above 50 µg/mL.
The corresponding values for `CCc1ccc(Oc2ncccc2/C(=N/O)NCc2ccccc2OC)cc1` are 1.08 µg/mL (≈ 2.86 µM) and above 50 µg/mL.
The corresponding values for `CC1CCC(C)N1/C(=N\O)c1ccc(Oc2ccc3ccccc3c2)nc1` (configuration not stated) are 0.91 µg/mL (≈ 2.52 µM) and above 50 µg/mL.
For `CC1CC(N/C(=N\O)c2cccnc2Oc2ccc(C(C)C)cc2)CC(C)(C)C1` (configuration not stated), in that order: 0.54 µg/mL (≈ 1.37 µM) and 21.9 µg/mL (≈ 55.4 µM).
Regarding `O/N=C(\NC1CCCCC1)c1ccc(Br)cc1`, the half-maximal inhibitory concentration (IC50) in data set [1] was above 5 µg/mL. In data set [2], the IC50 at 24 h turned out to be 38 µg/mL (≈ 128 µM).
